Reference: patent US20190076436A1, “MACROCYCLIC COMPOUNDS AS ROS1 KINASE INHIBITORS” (Array BioPharma Inc., priority 2017, published 2019)

Assays:
Type in all cases: biochemical
[1] = target: D2033N ROS1 (Homo sapiens, UniProt P08922, D2033N); test: Inhibition of D2033N ROS1 kinase, CisBio HTRF KinEASE-TK assay
Description: (§1) The potency of a compound inhibiting wild type and exemplary mutant ROS1 kinases was determined using CisBio's HTRF Kinease-TK assay technology. […] No. […] No. […] Each kinase is incubated with 250 nM TK-substrate biotin (CisBio, Cat. No. 62TKOPEC) and 1 mM ATP along with test compound in a buffer consisting of 25 mM MOPS [pH 7.4], 5 mM MgCl2, 0.005% Triton X-100, and 2% DMSO in a volume of 8 μL. […] After a 1 hour incubation at 22° C., the extent of reaction was determined using a PerkinElmer EnVision multimode plate reader via HTRF dual wavelength detection, and the percent of control (POC) was calculated using a ratiometric emission factor. 100 POC is determined using no test compound and 0 POC is determined in the absence of enzyme.

[2] = target: L2026M ROS1 (Homo sapiens, UniProt P08922, L2026M); test: Inhibition of L2026M ROS1 kinase, CisBio HTRF KinEASE-TK assay
Chain of L2026M ROS1 (P08922 28-2347 L2026M): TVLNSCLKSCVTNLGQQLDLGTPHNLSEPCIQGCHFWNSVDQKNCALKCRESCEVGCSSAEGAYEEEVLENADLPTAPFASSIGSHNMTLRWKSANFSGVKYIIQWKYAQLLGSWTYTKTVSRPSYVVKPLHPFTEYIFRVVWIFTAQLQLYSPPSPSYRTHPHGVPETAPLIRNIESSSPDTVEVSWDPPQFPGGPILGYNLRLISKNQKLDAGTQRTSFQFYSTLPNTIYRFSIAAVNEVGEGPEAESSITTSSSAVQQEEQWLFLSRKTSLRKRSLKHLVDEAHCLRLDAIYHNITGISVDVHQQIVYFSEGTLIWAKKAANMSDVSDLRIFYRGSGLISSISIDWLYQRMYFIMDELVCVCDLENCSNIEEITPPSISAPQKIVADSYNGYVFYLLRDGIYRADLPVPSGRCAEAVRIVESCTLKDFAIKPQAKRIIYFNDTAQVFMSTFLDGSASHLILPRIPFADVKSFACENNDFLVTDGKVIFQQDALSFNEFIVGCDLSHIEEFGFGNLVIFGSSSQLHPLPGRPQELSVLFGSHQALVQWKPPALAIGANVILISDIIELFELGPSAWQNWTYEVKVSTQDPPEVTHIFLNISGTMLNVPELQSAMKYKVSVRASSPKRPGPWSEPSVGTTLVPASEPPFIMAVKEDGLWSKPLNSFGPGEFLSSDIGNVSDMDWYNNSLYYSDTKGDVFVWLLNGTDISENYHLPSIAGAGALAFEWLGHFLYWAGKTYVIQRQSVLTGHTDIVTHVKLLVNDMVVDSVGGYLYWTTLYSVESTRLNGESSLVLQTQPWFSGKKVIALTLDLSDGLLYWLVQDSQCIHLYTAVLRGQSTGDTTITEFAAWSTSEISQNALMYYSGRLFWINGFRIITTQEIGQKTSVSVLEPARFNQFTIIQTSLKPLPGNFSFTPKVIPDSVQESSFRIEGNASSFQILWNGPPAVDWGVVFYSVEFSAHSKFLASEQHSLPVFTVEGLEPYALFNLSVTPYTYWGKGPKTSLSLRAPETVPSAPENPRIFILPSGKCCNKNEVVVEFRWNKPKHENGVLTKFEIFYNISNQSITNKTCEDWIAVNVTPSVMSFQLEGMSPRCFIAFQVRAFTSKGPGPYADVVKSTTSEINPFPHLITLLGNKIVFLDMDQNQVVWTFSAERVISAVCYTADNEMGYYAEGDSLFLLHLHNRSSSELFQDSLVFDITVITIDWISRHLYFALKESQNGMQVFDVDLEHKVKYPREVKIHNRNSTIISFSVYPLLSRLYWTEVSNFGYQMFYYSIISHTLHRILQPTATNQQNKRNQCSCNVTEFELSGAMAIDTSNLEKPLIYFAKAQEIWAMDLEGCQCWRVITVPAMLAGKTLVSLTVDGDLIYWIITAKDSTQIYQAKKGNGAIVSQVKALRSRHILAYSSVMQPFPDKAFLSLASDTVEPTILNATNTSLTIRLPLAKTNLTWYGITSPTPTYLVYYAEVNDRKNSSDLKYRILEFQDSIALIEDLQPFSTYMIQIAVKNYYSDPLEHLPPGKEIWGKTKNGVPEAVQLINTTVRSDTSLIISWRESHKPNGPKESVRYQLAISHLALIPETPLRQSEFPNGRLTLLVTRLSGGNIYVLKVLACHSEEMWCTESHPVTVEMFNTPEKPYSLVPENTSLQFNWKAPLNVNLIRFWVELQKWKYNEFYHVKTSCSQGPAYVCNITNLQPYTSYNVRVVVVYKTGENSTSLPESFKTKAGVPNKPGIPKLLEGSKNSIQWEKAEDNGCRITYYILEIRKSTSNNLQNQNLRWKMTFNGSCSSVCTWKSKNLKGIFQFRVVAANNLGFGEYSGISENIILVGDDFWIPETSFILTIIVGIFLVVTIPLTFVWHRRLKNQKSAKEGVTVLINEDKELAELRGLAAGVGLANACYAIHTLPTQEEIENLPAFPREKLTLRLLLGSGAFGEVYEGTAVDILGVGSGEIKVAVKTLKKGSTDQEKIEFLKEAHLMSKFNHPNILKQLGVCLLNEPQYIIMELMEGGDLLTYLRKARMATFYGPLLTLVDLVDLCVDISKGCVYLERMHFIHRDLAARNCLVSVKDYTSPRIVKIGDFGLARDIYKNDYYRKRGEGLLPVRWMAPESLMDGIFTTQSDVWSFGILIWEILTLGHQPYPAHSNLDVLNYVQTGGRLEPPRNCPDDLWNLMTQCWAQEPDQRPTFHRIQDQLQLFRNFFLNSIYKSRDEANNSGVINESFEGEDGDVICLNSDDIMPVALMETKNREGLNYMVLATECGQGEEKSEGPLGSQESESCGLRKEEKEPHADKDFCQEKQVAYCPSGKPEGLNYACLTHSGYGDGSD
Description: as §1

[3] = target: G2032R ROS1 (Homo sapiens, UniProt P08922, G2032R); test: Inhibition of G2032R ROS1 kinase, CisBio HTRF KinEASE-TK assay
Chain of G2032R ROS1 (P08922 1883-2347 G2032R limits assumed): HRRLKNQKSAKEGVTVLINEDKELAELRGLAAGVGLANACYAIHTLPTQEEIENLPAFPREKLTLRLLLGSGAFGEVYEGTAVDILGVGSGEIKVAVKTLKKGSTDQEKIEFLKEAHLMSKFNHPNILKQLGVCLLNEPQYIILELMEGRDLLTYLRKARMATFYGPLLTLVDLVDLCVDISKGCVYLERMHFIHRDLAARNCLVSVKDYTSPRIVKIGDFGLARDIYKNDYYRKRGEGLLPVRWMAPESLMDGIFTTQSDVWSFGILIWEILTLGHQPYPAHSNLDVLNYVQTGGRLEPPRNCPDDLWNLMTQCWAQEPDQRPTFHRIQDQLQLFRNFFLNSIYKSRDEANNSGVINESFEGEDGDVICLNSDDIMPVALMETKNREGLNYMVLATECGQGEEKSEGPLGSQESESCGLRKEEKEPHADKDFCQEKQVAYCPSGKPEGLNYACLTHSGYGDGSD
Description: as §1

[4] = target: wild type ROS1 (Homo sapiens, UniProt P08922); test: Inhibition of wild type ROS1 kinase, CisBio HTRF KinEASE-TK assay; conditions: read-out: ROS1 wT IC50
Chain of wild type ROS1 (P08922 1883-2347 limits assumed): as the sequence (P08922 1883-2347 G2032R limits assumed) above, with R150G counted along it
Description: as §1

Chain of D2033N ROS1 (P08922 28-2347 D2033N): as the sequence (P08922 28-2347 L2026M) above, with M1999L, D2006N counted along it

Compound | IC50 [1] | IC50 [2] | IC50 [3] | IC50 [4]
O=C1NC[C@H](O)COc2ccc(F)cc2C2CC(F)(F)CN2c2ccn3ncc1c3n2 (single isomer, unassigned) [Compound 45] | 16.8 nM | 4.6 nM | 114 nM | 6.1 nM
O=C1NCCCOc2cccc(n2)[C@H]2CCCN2c2ccn3ncc1c3n2 [Compound 2, (6R)-12-oxa-2,16,20,21,24,26-hexaazapentacyclo[16.5.2.1^7,11.0^2,6.0^21,25] hexacosa-1(24),7(26),8,10,18(25),19,22-heptaen-17-one] | 11.9 nM | 67 nM | 1060 nM | 80.3 nM
O=C1NCCCOc2ncc(F)cc2[C@H]2CCCN2c2ccn3ncc1c3n2 [Compound 3, (6R)-9-fluoro-13-oxa-2,11,17,21,22,25-hexaazapentacyclo[17.5.2.0^2,6.0^7,12.0^22,26] hexacosa-1(25),7,9,11,19(26),20,23-heptaen-18-one] | 0.3 nM | 1.2 nM | 9.4 nM | 1.2 nM
O=C1OCCOc2ncc(F)cc2[C@H]2CCCN2c2ccn3ncc1c3n2 [Compound 14] | 7.6 nM | 30.3 nM | 107 nM | 28.9 nM
O=C1NCCCOc2ccc(F)cc2[C@H]2CCCN2c2ccn3ncc1c3n2 [Compound 20, (6R)-9-fluoro-13-oxa-2,17,21,22,25-pentaazapentacyclo[17.5.2.0^2,6.0^7,12.0^22,26] hexacosa-1(25),7,9,11,19(26),20,23-heptaen-18-one] | 2.8 nM | 2.2 nM | 21.6 nM | 2.5 nM
CC(=O)N1CCOc2ccc(F)cc2[C@H]2CCCN2c2ccn3ncc(c3n2)C1 [Compound 22, 1-[(6R)-9-fluoro-13-oxa-2,16,20,21,24-pentaazapentacyclo[16.5.2.0^2,6.0^7,12.0^21,25]pentacosa-1(24),7,9,11,18(25),19,22-heptaen-16-yl]ethan-1-one] | 397 nM | 713 nM | 3980 nM | 331 nM
C[C@H]1CNC(=O)c2cnn3ccc(nc23)N2CCC[C@@H]2c2cc(F)cn(c2=O)C1 [Compound 35, (6R,13S)-9-fluoro-13-methyl-2,11,15,19,20,23-hexaazapentacyclo [15.5.2.1^7,11.0^2,6.0^20,24]pentacosa-1(23),7,9,17(24),18,21-hexaene-16,25-dione] | 260 nM | 589 nM | 4930 nM | 779 nM

More lines, in order of falling IC50 [1], values ahead:

IC50 [1] | IC50 [2] | IC50 [3] | IC50 [4] | Compound
1.7 nM | 10.2 nM | 98.6 nM | 9.2 nM | O=C1NCCOc2ncc(F)cc2[C@H]2CCCN2c2ccn3ncc1c3n2 [Compound 9, (6R)-9-fluoro-13-oxa-2,11,16,20,21,24-hexaazapentacyclo[16.5.2.0^2,6.0^7,12.0^21,25] pentacosa-1(24),7,9,11,18(25),19,22-heptaen-17-one]
1.2 nM | 2.4 nM | 14.4 nM | 2.4 nM | O=C1NCC(F)(F)COc2ncc(F)cc2[C@H]2CCCN2c2ccn3ncc1c3n2 [Compound 19, (6R)-9,15,15-trifluoro-13-oxa-2,11,17,21,22,25-hexaazapentacyclo[17.5.2.0^2,6.0^7,12.0^22,26] hexacosa-1(25),7,9,11,19(26),20,23-heptaen-18-one]
0.6 nM | 2.9 nM | 29.2 nM | 3.1 nM | O=C1NC[C@@H](O)COc2ncc(F)cc2[C@H]2CCCN2c2ccn3ncc1c3n2 [Compound 7, (6R,15R)-9-fluoro-15-hydroxy-13-oxa-2,11,17,21,22,25-hexaazapentacyclo-[17.5.2.0^2,6.0^7,12.0^22,26]hexacosa-1(25),7,9,11,19(26),20,23-heptaen-18-one]
